Source: patent US20260166021A1, “POLYMORPHIC FORMS OF A SOLUBLE EPOXIDE HYDROLASE INHIBITOR AND FORMULATIONS THEREOF” (EicOsis, LLC, priority 2022, published 2026)

Experiments:
[1] = Competitive slurry experiments (solvent-mediated polymorph transformation, XRD); assay type: physicochemical; details: 1 and 7 days
Description: Polymorph stability and interconversions were analyzed with competitive slurry experiments. The competitive slurry (solvent-mediated transformation) experiments were performed on Forms A, B, D, E, F, G, and I generated through scaled-up crystallization (summarized in TABLE 11). […] The suspensions were aliquoted at one day and seven days and filtered to isolate the solids. Remaining solid was analyzed by XRD without drying.
In FIG. 66, the second spectrum from the top corresponds to Form E. These XRD data confirmed that Patterns C, K, and D were afforded in these solvents.
In order to further confirm the rank of stability order of the selected forms and extend the temperature range of stability relationship up to 70° C. covering potential API process conditions, binary form slurries were conducted with starting mixtures of (1) Forms A and D, and (2) Forms D and E. The resultant polymorphs were characterized with XRD after 1 and 7 days, the results of which analyses are shown in FIGURE S 67-68 and summarized in TABLE 13. Pattern D stood out from both binary mixture slurries of A & D and of D & E after seven-day stirring at the elevated temperature.
Additional single form slurry experiments were conducted on Forms A, D, and E in either water or heptane at room temperature. […] In agreement with prior competitive slurry experiments, Form D was stable at room temperature in n-heptane. Pattern E was obtained from slurries starting with Forms A and E in n-heptane. As expected, Form C was formed from the Pattern E slurry in water.

[2] = Particle size analysis (Malvern particle sizer, dry method; optical microscopy); assay type: physicochemical
Description: Particle size was first analyzed with optical microscopy.
Particle size was also analyzed with a dry-method using a Malvern 300 particle sizer equipped with a standard energy venturi and utilizing 2.5 bar, 3.0 bar, and 3.5 bar air pressure. […] One possible explanation is that the insufficient energy was provided to break up particle agglomerations.
Based on these findings, particle size analysis was repeated at 2.5, 3.0, and 3.5 bar using a higher energy venturi to ensure the break-up of the potential agglomerates. The detailed particle sizing data using high-energy venturi are summarized in TABLE 26 and in FIGS. 114-119, with FIGS. 114-116 corresponding to 2.5, 3.0, and 3.5 bar analyses of unmilled Form D and FIGS. 117-119 corresponding to 2.5, 3.0, and 3.5 bar analyses of micronized Form D, respectively. While the data remained bimodal, indicating incomplete break-up of particle agglomerates, the D90 of micronized material measured below 6 μm, in closer agreement with the optical analyses.

[3] = milled (micronized), 2.5 bar air pressure, high-energy venturi
[4] = milled (micronized), 2.5 bar air pressure, standard energy venturi
[5] = milled (micronized), 3.0 bar air pressure, high-energy venturi
[6] = milled (micronized), 3.0 bar air pressure, standard energy venturi
[7] = milled (micronized), 3.5 bar air pressure, high-energy venturi
[8] = milled (micronized), 3.5 bar air pressure, standard energy venturi
[9] = unmilled, 2.5 bar air pressure, high-energy venturi
[10] = unmilled, 2.5 bar air pressure, standard energy venturi
[11] = unmilled, 3.0 bar air pressure, high-energy venturi
[12] = unmilled, 3.0 bar air pressure, standard energy venturi
[13] = unmilled, 3.5 bar air pressure, high-energy venturi
[14] = unmilled, 3.5 bar air pressure, standard energy venturi

With `CC[C@H](C)C(=O)N1CCC(NC(=O)Nc2ccc(OC(F)(F)F)c(F)c2)CC1` [Form D, (S)-1-(3-fluoro-4-(trifluoromethoxy)phenyl)-3-(1-(2-methylbutanoyl)piperidin-4-yl)urea] the “polymorph stability in binary form slurries” value ([1]; mixtures A & D and D & E, n-heptane, up to 70° C.) was “most thermodynamically stable”, the “single form slurry in n-heptane: resultant polymorph” value ([1]; n-heptane, room temperature) was “stable” and the “polymorph stability in competitive slurry” value ([1]; room temperature, water, MTBE or n-heptane, listed as Pattern D) was “most stable form”. For the same compound, the D10 [2, 3] was 0.46 μm, the D50 [2, 3] was 1.52 μm and the D90 [2, 3] was 5.80 μm. The “PSD Modal” value [2, 3] was “Bimodal”, the D10 [2, 4] was 0.56 μm and the D50 [2, 4] was 1.85 μm. The D90 [2, 4] was 45.9 μm, the “PSD Modal” value [2, 4] was “Bimodal” and the D10 [2, 5] was 0.46 μm. The D50 [2, 5] was 1.47 μm, the D90 [2, 5] was 5.42 μm and the “PSD Modal” value [2, 5] was “Bimodal”. The D10 [2, 6] was 0.55 μm, the D50 [2, 6] was 1.80 μm and the D90 [2, 6] was 47.4 μm. The “PSD Modal” value [2, 6] was “Bimodal”, the D10 [2, 7] was 0.44 μm and the D50 [2, 7] was 1.51 μm. For the same compound, the D90 [2, 7] was 5.44 μm, the “PSD Modal” value [2, 7] was “Bimodal” and the D10 [2, 8] was 0.54 μm. For the same compound, the D50 [2, 8] was 1.69 μm, the D90 [2, 8] was 29.4 μm and the “PSD Modal” value [2, 8] was “Bimodal”. For the same compound, the D10 [2, 9] was 5.24 μm, the D50 [2, 9] was 22.0 μm and the D90 [2, 9] was 55.8 μm. The “PSD Modal” value [2, 9] was “Bimodal”, the D10 [2, 10] was 8.66 μm and the D50 [2, 10] was 34.5 μm. The D90 [2, 10] was 79.3 μm, the “PSD Modal” value [2, 10] was “Unimodal” and the D10 [2, 11] was 4.47 μm. For the same compound, the D50 [2, 11] was 20.1 μm, the D90 [2, 11] was 54.8 μm and the “PSD Modal” value [2, 11] was “Bimodal”. It also gave a D10 [2, 12] of 8.26 μm, a D50 [2, 12] of 35.0 μm and a D90 [2, 12] of 91.2 μm. For the same compound, the “PSD Modal” value [2, 12] was “Unimodal”, the D10 [2, 13] was 2.84 μm and the D50 [2, 13] was 17.2 μm. For the same compound, the D90 [2, 13] was 51.1 μm, the “PSD Modal” value [2, 13] was “Bimodal” and the D10 [2, 14] was 7.37 μm. For the same compound, the D50 [2, 14] was 33.1 μm, the D90 [2, 14] was 78.6 μm and the “PSD Modal” value [2, 14] was “Unimodal”.
